The source of these data is the METLIN SMRT retention time set (Domingo-Almenara et al. 2019).

SMILES strings stand for the structures.

This data set is described as follows: gradient 5% acetonitrile 3 min, to 50% in 2 min, to 85% in 15 min, held 3 min, 100 µL/min. The following applies: column: Zorbax Extend-C18 2.1 x 50 mm; eluents: water / acetonitrile, 0.1% formic acid. The procedure, abridged:
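Data were gathered over 3 months by HPLC coupled to a quadrupole time-of-flight mass spectrometer, operated in positive and negative ionization mode. Mixtures of ~100 pure standards ran on a Zorbax Extend-C18 column (2.1 × 50 mm, 1.8 μm) at 100 μL/min, with water and acetonitrile each containing 0.1% formic acid and dead and dwell volumes of 40 μL and 900 μL. Retention time was read from adduct peaks picked by computer and checked manually.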
The compound `O=C(Cn1ccn2nc(-c3ccccc3)c(CO)c2c1=O)Nc1ccc2c(c1)OCO2` showed an RP-LC retention time of 1030 s. To `COc1ccc2[nH]c(=O)c(CCC(=O)O)cc2c1` belongs 712 s; to `CCCNC(=O)C1CCCN(C(=O)c2[nH]c(C)c(C(=O)OC)c2C)C1` (stereo not given), 668 s; to `O=C(NCCn1nc(-n2ccnc2)ccc1=O)c1cccc(-n2cnnn2)c1`, 521 s. Then `Cc1sc2ncnc(SCC(=O)c3ccc4c(c3)OCCO4)c2c1C`, with 1040 s; and `Cc1nn(-c2ccccc2)c(C)c1CCC(=O)NCCN(C)C`, with 590 s; and `O=C(NCc1csc(-c2ccccc2)n1)[C@H]1CCCN1C(=O)Nc1ccc(Br)cc1`, with 874 s. Then `COc1cccc(Nc2c(-c3ccc(C(=O)O)cc3)nc3cnccn23)c1`, with 681 s.

For `C=CCn1c(=O)c2ccccc2n(Cc2nc(-c3ccc(C)cc3)no2)c1=O`, the RP-LC retention time turned out to be 1070 s. In turn, `CC(C)(C)n1nnnc1C1CC2(CCOCC2)C(=O)N1Cc1ccc(F)cc1Cl` (stereo not given) showed an RP-LC retention time of 671 s. Compound `Cc1ccc(NC(=O)N2CCN(c3cnn4c(C)nnc4c3)CC2)cc1Cl` registered an RP-LC retention time of 674 s. To `O=C(NCc1csc(-c2ccccc2)n1)C1CCN(S(=O)(=O)c2ccc(F)cc2)CC1` belongs 910 s. Then `CC(=O)c1cccc(NC(=O)Cn2cc3c(n2)CCCC3)c1`, with 760 s. To `O=c1ccc(-c2ccccc2)nn1Cc1nc(-c2cccc(Br)c2)no1` belongs 1090 s; to `COc1cc(=O)c(C(=O)Nc2cccc(SC)c2)nn1-c1cccc(F)c1`, 805 s.

On to `O=C(CCCn1c(=O)c2cccn2c2ccc(F)cc21)NCCN1CCCCCC1`, for which the RP-LC retention time was 635 s. The compound `CCn1c(C(=O)NCCCOC(C)C)cc2c(=O)oc3ccccc3c21` registered an RP-LC retention time of 916 s.

For `Cc1cccc(S(=O)(=O)N2CCC(c3nc(C(=O)N(C)C)c(C)o3)CC2)c1`, the RP-LC retention time was 826 s. `CCCN1C(=O)c2cc(S(=O)(=O)Nc3ccccc3F)ccc2Oc2cccnc21` returned an RP-LC retention time of 1030 s. `COc1cccc(Cc2nc(Cn3c(C)nc4ccccc4c3=O)no2)c1` displayed an RP-LC retention time of 812 s. To `CCC(=O)N1CCc2c(C(=O)N3CCN(c4ccc(OC)cc4)CC3)cccc21` belongs 778 s. Compound `CCc1nc2cc3c(cc2n1CC(=O)NC(C)c1ccccc1)OCCO3` (stereo not given) yielded an RP-LC retention time of 651 s. Then `CCOC(=O)c1nc(Nc2cccc(OC)c2)c2ccccc2n1`, with 854 s; and `O=C(CN1CCN(Cc2ccccc2F)C1=O)NCc1ccc(N2CCCC2)cc1`, with 783 s.

Regarding `CCC(=O)N1CCc2c(C(=O)O)cccc21`, the RP-LC retention time amounted to 657 s.

`O=C(CCc1ccccc1)N1CCOc2ccccc2C1` came in with an RP-LC retention time of 861 s. Then `COCCN1CCC(CNS(=O)(=O)c2ccc(OCC(C)C)cc2)CC1`, with 587 s; and `COc1ccc2[nH]cc(CCNC(=O)c3ccccc3NC(=O)C3=C(C)OCCS3)c2c1`, with 938 s. Take `O=C(CCCN1C(=O)c2cccc3cccc(c23)C1=O)Nc1cccnc1`: the RP-LC retention time was found to be 571 s.

In turn, `CC(C)(C)NC(=O)N1C[C@@H]2CN(S(=O)(=O)c3cccc(F)c3)C[C@H](C1)O2` had an RP-LC retention time of 765 s.

In turn, `O=C(c1ccccc1C(F)(F)F)N1CCc2nc(-c3ccc(Cl)cc3)ncc2C1` displayed an RP-LC retention time of 1060 s.

Turning to `CCCCn1nc2c(S(=O)(=O)N3CCN(c4ccc(F)cc4)CC3)cccn2c1=O`, the RP-LC retention time was determined as 951 s. `COC(=O)c1cc(S(=O)(=O)N2CCCC2C(=O)Nc2ccc(C)c(C)c2)cn1C` (stereo not given): the RP-LC retention time worked out at 939 s.

`COc1ccc(S(=O)(=O)N(CC(=O)NO)CC(C)C)cc1` came in with an RP-LC retention time of 615 s. Then `Cc1noc2nc(CCC(=O)NCCCc3ccccc3)nc(N3CCCC3)c12`, with 765 s; and `CCCC(=O)N1CCCN(C2=NS(=O)(=O)C(c3ccc(C)cc3)=C2C)CC1`, with 797 s. To `O=C1NCCCCCCN(C(=O)c2ccco2)[C@H]2C[C@H](C(=O)N3CCc4ccccc4C3)C[C@@H]12` belongs 824 s; to `CCN1CCn2cc(S(=O)(=O)Nc3cc(F)cc(F)c3)cc2C1=O`, 755 s. To `Cc1ccc(-c2ncc(C(=O)NCC3CCCCC3)c(-c3ccncc3)n2)cc1` belongs 992 s; to `Cc1ccc(S(=O)(=O)N2CCCC2CNC(=O)c2ccc(F)c(F)c2)cc1` (stereo not given), 896 s; to `Cc1nnc2cc(N3CCN(C(=O)Nc4ccc(Cl)cc4)CC3)cnn12`, 657 s. Regarding `O=C(c1c[nH]c2ncccc12)N1CCCCCC1`, the RP-LC retention time came to 646 s.

Compound `CC(C)NC(=O)c1ccc(-c2nc3cc(NS(=O)(=O)c4ccc(F)cc4)ccc3n2C)cc1` returned an RP-LC retention time of 684 s. For `Cc1nn2cnnc2c(C)c1CCC(=O)NCCN(C)Cc1ccccc1`, the RP-LC retention time was found to be 571 s. Then `CC(=O)Nc1ccc(C2(C(=O)NCc3ccc(F)cc3)CCC2)cc1`, with 748 s; and `CCn1cc(-c2nc(-c3ccc(OC(C)C)cc3)no2)c(=O)c2cc(F)c(N3CCOCC3)cc21`, with 1050 s; and `CC(C)NC(=O)c1c2c(nc3ccc(F)cc13)CCCC2`, with 631 s.

Turning to `Cc1cc(CNC(=O)C(=O)Nc2cc(Cl)ccc2C#N)c(C)o1`, the RP-LC retention time was 958 s. To `CC(C)Cn1c(=O)c2nscc2n(CC(=O)NC(C)C)c1=O` belongs 693 s; to `Cc1ccc(NC(=O)CN2C(=O)CCc3cc(S(=O)(=O)N4CCCCC4C)ccc32)cc1` (stereo not given), 797 s; to `Cc1csc(-c2cc(S(=O)(=O)NCc3ccccc3Cl)c(C)s2)n1`, 1050 s. `CCOc1nccnc1N1CCC(NC(=O)Cc2cccs2)C1` (stereo not given) had an RP-LC retention time of 921 s. Then `CCOC(=O)CC1(NC(=O)NCC(=O)N2CCc3ccccc32)CCCCC1`, with 885 s. Then `O=C(Cc1cccs1)NC1CCN(C(=O)c2cc(-c3cccs3)[nH]n2)CC1`, with 704 s.

The compound `Cc1cc(C)n2nc(SCC(=O)NC3CCCCC3)nc2n1` gave an RP-LC retention time of 693 s. As for `COc1ccc(S(=O)(=O)Nc2ccc3c(c2)CCC(=O)N3CC(C)C)cc1`, the RP-LC retention time was determined as 832 s. On to `Cc1ncsc1CN1CCCC(n2c(C)cnc2-c2ccncc2)C1` (stereo not given), for which the RP-LC retention time came out at 533 s. Compound `COc1cccc(Cn2nc3ccc(S(=O)(=O)N4CCOCC4)cn3c2=O)c1` yielded an RP-LC retention time of 783 s.

As to `Cc1ccc(-c2noc(CN3C(=O)COc4cc(Cl)ccc43)n2)cc1`, the RP-LC retention time stood at 1140 s.

`Cc1cc(C)cc(NS(=O)(=O)c2cc3n(c2)CCN(C(C)C)C3=O)c1` gave an RP-LC retention time of 808 s. With `CCC(CC)NC(=O)C1(CCO)CCN(Cc2ccccc2)C1` (stereo not given), the RP-LC retention time turned out to be 618 s. To `Cc1cc(C2CCCN2C(=O)Nc2ccc(C)c(C)c2)no1` (stereo not given) belongs 857 s; to `CC(C)c1cc(C(=O)Nc2ccccc2)no1`, 969 s. To `CCS(=O)(=O)N1CCN(Cc2ccc(OC)nc2)CC1` belongs 921 s; to `COc1ccc(Cl)cc1C(=O)N1CCN(c2cc(-c3cccs3)[nH]n2)CC1`, 812 s; to `O=C(NCc1ccccc1)N1CCCC1c1nc(-c2ccc(F)cc2F)no1` (stereo not given), 862 s. In turn, `COc1ccc(C2CC(=O)N(c3cccc(Br)c3)C(=O)C2)cc1` registered an RP-LC retention time of 970 s. Then `CCn1c(=O)oc2cc(-c3noc(-c4ccc(OC)c(OC)c4)n3)ccc21`, with 990 s. To `Cc1cccc(-c2nnc(C)c(N3CCN(c4ccccn4)CC3)n2)c1` belongs 589 s; to `O=C(Nc1ccc2c(c1)CCC2)c1ccnc(N2CCNC(c3ccccc3)C2)c1` (stereo not given), 742 s.

Compound `CCOc1ccc(OCC)c(NC(=O)C2CCCN(C(=O)c3cc(-c4ccccn4)n[nH]3)C2)c1` (stereo not given) gave an RP-LC retention time of 775 s.

Compound `CC(C)CCNC(=O)C1CCCN(c2ncc(-c3ccc(F)cc3)cn2)C1` (stereo not given) came in with an RP-LC retention time of 1060 s. `O=C(Nc1ccccc1Cl)N1CCCC1c1nc(-c2ccc(F)cc2F)no1` (stereo not given): the RP-LC retention time came to 1040 s. With `O=C(Cc1csc(-n2cccc2)n1)NCc1nc(-c2ccccc2)no1`, the RP-LC retention time was 821 s. To `O=C(NCc1cccnc1)C1CCc2sc(C(=O)N3CCOCC3)cc2C1` (stereo not given) belongs 526 s; to `CC(C)[C@@H]1CC[C@@H](C)C[C@@H]1P(=O)(c1ccccc1)c1ccccc1`, 1290 s; to `Cc1ccc2c(c1)cc(S(=O)(=O)c1ccccc1)c(=O)n2CC(=O)NCc1ccc2c(c1)OCO2`, 899 s. To `Clc1ccc(-c2noc(Cc3nc(-c4ccccc4)cs3)n2)cc1` belongs 1290 s; to `CC(C)C(=O)N1CCc2c(c(C(=O)N3CCC(C(=O)NCc4ccc(F)cc4)CC3)nn2C)C1`, 675 s. Consider `Cc1csc(-c2cc(S(=O)(=O)NCCc3cccs3)c(C)n2C)n1`, for which the RP-LC retention time was 973 s.
